Assay results published in US11053204B2, “Pyrimidinyloxy benzene derivatives as herbicides” (FMC Corporation, priority 2015, dated 2021).

Assays:
Format in all cases: in vivo
[1] = test system: Italian ryegrass (Lolium multiflorum); assay: Test A preemergence, visual injury rating; conditions: for Plant response rating, Ryegrass, Italian: 31 g ai/ha, 0 to 100 scale, 0 no effect, 100 complete control; for Ryegrass, Italian plant response rating: 0 to 100 scale (0 no effect, 100 complete control)
How it was run: (§1)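 Visual 0–100 rating (100 = complete control) taken about 10 d post-treatment relative to untreated checks. Preemergence: directed soil spray on sown loam/sand pots. Postemergence: seedlings 2–10 cm, 1–2 leaf. Non-phytotoxic solvent formulation with surfactant.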

[2] = test system: barnyardgrass (Echinochloa crus-galli); assay: Test A preemergence, visual injury rating; conditions: for Plant response rating, Barnyardgrass: 31 g ai/ha, 0 to 100 scale, 0 no effect, 100 complete control; for Barnyardgrass plant response rating: 0 to 100 scale (0 no effect, 100 complete control)
How it was run: as §1

[3] = test system: giant foxtail (Setaria faberii); assay: Test A preemergence, visual injury rating; conditions: for Plant response rating, Foxtail, Giant: 31 g ai/ha, 0 to 100 scale, 0 no effect, 100 complete control; for Foxtail, Giant plant response rating: 0 to 100 scale (0 no effect, 100 complete control)
How it was run: as §1

[4] = test system: kochia (Kochia scoparia); assay: Test A preemergence, visual injury rating; conditions: for Plant response rating, Kochia: 31 g ai/ha, 0 to 100 scale, 0 no effect, 100 complete control; for Kochia plant response rating: 0 to 100 scale (0 no effect, 100 complete control)
How it was run: as §1

[5] = test system: pigweed (Amaranthus retroflexus); assay: Test A preemergence, visual injury rating; conditions: for Plant response rating, Pigweed: 31 g ai/ha, 0 to 100 scale, 0 no effect, 100 complete control; for Pigweed plant response rating: 0 to 100 scale (0 no effect, 100 complete control)
How it was run: as §1

[6] = test system: ragweed (common ragweed, Ambrosia elatior); assay: Test A preemergence, visual injury rating; conditions: for Plant response rating, Ragweed: 31 g ai/ha, 0 to 100 scale, 0 no effect, 100 complete control; for Ragweed plant response rating: 0 to 100 scale (0 no effect, 100 complete control)
How it was run: as §1

[7] = test system: Italian ryegrass (Lolium multiflorum); assay: Test A postemergence, visual injury rating; conditions: 0 is no effect, 100 is complete control; for Ryegrass, Italian plant response rating: 31 g ai/ha, 0 to 100 scale, approximately 10 days
How it was run: as §1

[8] = test system: barnyardgrass (Echinochloa crus-galli); assay: Test A postemergence, visual injury rating; conditions: 0 is no effect, 100 is complete control; for Barnyardgrass plant response rating: 31 g ai/ha, 0 to 100 scale, approximately 10 days
How it was run: as §1

[9] = test system: blackgrass (Alopecurus myosuroides); assay: Test A postemergence, visual injury rating; conditions: 0 is no effect, 100 is complete control; for Blackgrass plant response rating: 31 g ai/ha, 0 to 100 scale, approximately 10 days
How it was run: as §1

[10] = test system: corn (Zea mays); assay: Test A postemergence, visual injury rating; conditions: 0 is no effect, 100 is complete control; for Corn plant response rating: 31 g ai/ha, 0 to 100 scale, approximately 10 days
How it was run: as §1

[11] = test system: galium (catchweed bedstraw, Galium aparine); assay: Test A postemergence, visual injury rating; conditions: 0 is no effect, 100 is complete control; for Galium plant response rating: 31 g ai/ha, 0 to 100 scale, approximately 10 days
How it was run: as §1

[12] = test system: giant foxtail (Setaria faberii); assay: Test A postemergence, visual injury rating; conditions: 0 is no effect, 100 is complete control; for Foxtail, Giant plant response rating: 31 g ai/ha, 0 to 100 scale, approximately 10 days
How it was run: as §1

[13] = test system: kochia (Kochia scoparia); assay: Test A postemergence, visual injury rating; conditions: 0 is no effect, 100 is complete control; for Kochia plant response rating: 31 g ai/ha, 0 to 100 scale, approximately 10 days
How it was run: as §1

[14] = test system: pigweed (Amaranthus retroflexus); assay: Test A postemergence, visual injury rating; conditions: 0 is no effect, 100 is complete control; for Pigweed plant response rating: 31 g ai/ha, 0 to 100 scale, approximately 10 days
How it was run: as §1

[15] = test system: ragweed (common ragweed, Ambrosia elatior); assay: Test A postemergence, visual injury rating; conditions: 0 is no effect, 100 is complete control; for Ragweed plant response rating: 31 g ai/ha, 0 to 100 scale, approximately 10 days
How it was run: as §1

[16] = test system: wheat (Triticum aestivum); assay: Test A postemergence, visual injury rating; conditions: 0 is no effect, 100 is complete control; for Wheat plant response rating: 31 g ai/ha, 0 to 100 scale, approximately 10 days
How it was run: as §1

[17] = test system: barnyardgrass (Echinochloa crus-galli); assay: Test B flooded paddy test, plant response rating; conditions: 250 g ai/ha; Flood; scale of 0 to 100 where 0 is no effect and 100 is complete control; 13 to 15 days
How it was run: (§2)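 Greenhouse pots flooded to 3 cm above soil at time of treatment received compound via the water, which stayed at that level.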

[18] = test system: ducksalad (Heteranthera limosa); assay: Test B flooded paddy test, plant response rating; conditions: 250 g ai/ha; Flood; scale of 0 to 100 where 0 is no effect and 100 is complete control; 13 to 15 days
How it was run: as §2

[19] = test system: rice (Oryza sativa); assay: Test B flooded paddy test, plant response rating; conditions: 250 g ai/ha; Flood; scale of 0 to 100 where 0 is no effect and 100 is complete control; 13 to 15 days
How it was run: as §2

[20] = test system: sedge, umbrella (small-flower umbrella sedge, Cyperus difformis); assay: Test B flooded paddy test, plant response rating; conditions: 250 g ai/ha; Flood; scale of 0 to 100 where 0 is no effect and 100 is complete control; 13 to 15 days
How it was run: as §2

SMILES	Ryegrass, Italian plant response rating ([1]; 125 g ai/ha)	Barnyardgrass plant response rating ([2]; 125 g ai/ha)	Foxtail, Giant plant response rating ([3]; 125 g ai/ha)	Kochia plant response rating ([4]; 125 g ai/ha)	Pigweed plant response rating ([5]; 125 g ai/ha)	Ragweed plant response rating ([6]; 125 g ai/ha)	Ryegrass, Italian plant response rating (0 to 100 scale) ([7]; 125 g ai/ha)	Barnyardgrass plant response rating (0 to 100 scale) ([8]; 125 g ai/ha)	Blackgrass plant response rating (0 to 100 scale) ([9]; 125 g ai/ha)	Corn plant response rating (0 to 100 scale) ([10]; 125 g ai/ha)	Galium plant response rating (0 to 100 scale) ([11]; 125 g ai/ha)	Foxtail, Giant plant response rating (0 to 100 scale) ([12]; 125 g ai/ha)	Kochia plant response rating (0 to 100 scale) ([13]; 125 g ai/ha)	Pigweed plant response rating (0 to 100 scale) ([14]; 125 g ai/ha)	Ragweed plant response rating (0 to 100 scale) ([15]; 125 g ai/ha)	Wheat plant response rating (0 to 100 scale) ([16]; 125 g ai/ha)	Plant response rating, Barnyardgrass [17]	Plant response rating, Ducksalad [18]	Plant response rating, Rice [19]	Plant response rating, Sedge, Umbrella [20]	also measured
CC(C)(C)OC(=O)c1c(F)cccc1Oc1ncc(Cl)cn1 [Compound 43]	0	40	60	100	90	0	0	10	0	0	40	0	10	40	0	0	0	0	0	0	Plant response rating, Ryegrass, Italian [1]: 0; Plant response rating, Barnyardgrass [2]: 0; Plant response rating, Foxtail, Giant [3]: 0; Plant response rating, Kochia [4]: 100; Plant response rating, Pigweed [5]: 30; Plant response rating, Ragweed [6]: 0; Ryegrass, Italian plant response rating [7]: 0; Barnyardgrass plant response rating [8]: 0; Blackgrass plant response rating [9]: 0; Corn plant response rating [10]: 0; Galium plant response rating [11]: 20; Foxtail, Giant plant response rating [12]: 0; Kochia plant response rating [13]: 0; Pigweed plant response rating [14]: 10; Ragweed plant response rating [15]: 0; Wheat plant response rating [16]: 0
O=C(OC1CCCC1)c1c(Br)cccc1Oc1ncc(Cl)cn1 [Compound 44]	0	0	40	0	0	0	0	0	0	0	0	0	0	0	0	0	0	0	0	30	Plant response rating, Ryegrass, Italian [1]: 0; Plant response rating, Barnyardgrass [2]: 0; Plant response rating, Foxtail, Giant [3]: 0; Plant response rating, Kochia [4]: 0; Plant response rating, Pigweed [5]: 0; Plant response rating, Ragweed [6]: 0; Ryegrass, Italian plant response rating [7]: 0; Barnyardgrass plant response rating [8]: 0; Blackgrass plant response rating [9]: 0; Corn plant response rating [10]: 0; Galium plant response rating [11]: 0; Foxtail, Giant plant response rating [12]: 0; Kochia plant response rating [13]: 0; Pigweed plant response rating [14]: 0; Ragweed plant response rating [15]: 0; Wheat plant response rating [16]: 0
O=C(OCC(Cl)(Cl)Cl)c1c(Br)cccc1Oc1ncc(Cl)cn1 [Compound 45]	0	0	10	0	70	0	0	20	0	20	100	20	50	100	10	0	0	0	0	0	Plant response rating, Ryegrass, Italian [1]: 0; Plant response rating, Barnyardgrass [2]: 0; Plant response rating, Foxtail, Giant [3]: 0; Plant response rating, Kochia [4]: 0; Plant response rating, Pigweed [5]: 0; Plant response rating, Ragweed [6]: 0; Ryegrass, Italian plant response rating [7]: 0; Barnyardgrass plant response rating [8]: 20; Blackgrass plant response rating [9]: 0; Corn plant response rating [10]: 0; Galium plant response rating [11]: 50; Foxtail, Giant plant response rating [12]: 20; Kochia plant response rating [13]: 20; Pigweed plant response rating [14]: 80; Ragweed plant response rating [15]: 10; Wheat plant response rating [16]: 0
O=C(OCCCl)c1c(Br)cccc1Oc1ncc(Cl)cn1 [Compound 46]	0	20	100	70	100	0	0	30	0	10	70	40	90	100	0	0	0	75	10	80	Plant response rating, Ryegrass, Italian [1]: 0; Plant response rating, Barnyardgrass [2]: 0; Plant response rating, Foxtail, Giant [3]: 40; Plant response rating, Kochia [4]: 0; Plant response rating, Pigweed [5]: 50; Plant response rating, Ragweed [6]: 0; Ryegrass, Italian plant response rating [7]: 0; Barnyardgrass plant response rating [8]: 0; Blackgrass plant response rating [9]: 0; Corn plant response rating [10]: 0; Galium plant response rating [11]: 50; Foxtail, Giant plant response rating [12]: 0; Kochia plant response rating [13]: 30; Pigweed plant response rating [14]: 60; Ragweed plant response rating [15]: 0; Wheat plant response rating [16]: 0
O=C(OCC(F)(F)F)c1c(F)cccc1Oc1ncc(Br)cn1 [Compound 47]	0	0	0	0	0	0	0	0	0	0	0	0	0	0	0	0	0	0	0	0	Ryegrass, Italian plant response rating ([1]; 500 g ai/ha): 0; Barnyardgrass plant response rating ([2]; 500 g ai/ha): 0; Foxtail, Giant plant response rating ([3]; 500 g ai/ha): 0; Kochia plant response rating ([4]; 500 g ai/ha): 0; Pigweed plant response rating ([5]; 500 g ai/ha): 0; Ragweed plant response rating ([6]; 500 g ai/ha): 0; Ryegrass, Italian plant response rating (0 to 100 scale) ([7]; 500 g ai/ha): 0; Barnyardgrass plant response rating (0 to 100 scale) ([8]; 500 g ai/ha): 0; Blackgrass plant response rating (0 to 100 scale) ([9]; 500 g ai/ha): 0; Corn plant response rating (0 to 100 scale) ([10]; 500 g ai/ha): 0; Galium plant response rating (0 to 100 scale) ([11]; 500 g ai/ha): 0; Foxtail, Giant plant response rating (0 to 100 scale) ([12]; 500 g ai/ha): 0; Kochia plant response rating (0 to 100 scale) ([13]; 500 g ai/ha): 0; Pigweed plant response rating (0 to 100 scale) ([14]; 500 g ai/ha): 0; Ragweed plant response rating (0 to 100 scale) ([15]; 500 g ai/ha): 0; Wheat plant response rating (0 to 100 scale) ([16]; 500 g ai/ha): 0
